# Source: patent publication US9815788B2, “Anti-angiogenic compounds” (University College Dublin National University of Ireland, …, priority 2012, dated 2017)
# “Also recorded” adds a separate entry of the source.
# How the values were obtained:
# [1] = system: zebrafish hyaloid vasculature; assay: Quantification of primary hyaloid vasculature branch number in Tg(fli1:EGFP) zebrafish; type: in vivo
# Procedure: (§1) All experiments were carried out under ethical approval granted by the UCD animal research ethics committee. Tg(fli1:EGFP) zebrafish were maintained according to standard procedures on a 14 hr light/10 hr dark cycle at 28° C. Embryos were obtained by natural spawning and developmental stages established by time and morphological criteria. […] Larvae were euthanised, and fixed in 4% PFA at 4° C. overnight before analysis.
# Overall patterning of the vasculature (fin, gut and intersegmental vessels) was examined for abnormalities. Right lenses were dissected from the larvae and transferred to depression slides for observation under epi-fluorescence in the Olympus SZX16. Patterning of the hyaloid vessels on the treated larval lenses was compared to DMSO controls and the archetypal pattern previously described (Alvarez et al., 2007; Alvarez et al., 2009).
# as §1, with “analysis. Lenses were dissected from the larvae and transferred to depression slides for observation under epi-fluorescence in the Olympus SZX16. Patterning of the hyaloid vessels on the treated larval lenses was compared to DMSO controls and the archetypal pattern previously described (Alvarez et al., 2007; Alvarez et al., 2009).” for “analysis.”
# [2] = system: explants cultures of human colorectal cancers; assay: Angiogenic/inflammatory factor secretion from human colorectal tumour explants (ELISA, multiplex); type: cell-based; settings: 10 μM, 72 hours; n=40 patients
# Procedure: Human colorectal tumour samples were taken directly from the pathology laboratory after surgery once adequate material was taken for diagnostic testing. The tumour samples were washed and stored in DMSO/tumour conditioning media (TCM). The samples were snap-frozen in liquid nitrogen and stored at −80° C. until compound testing was performed. Prior to compound testing, the tumours were thawed and incubated in fresh TCM for 24 hours. The explants were then treated with 4H, 11A and 11C at […] concentrations for 72 hours. The TCM solutions were collected and stored at −20° C. and the remaining tumour explants were snap-frozen in liquid nitrogen and stored at −80° C. Proteins were extracted from the explants using a nuclear RIPA buffer containing PMSF, sodium orthovandate and protease inhibitors. The explants were homogenised in a PreCellys™ machine. The total protein contents were determined from the resulting lysates using the BCA assay™. […] The secretion of angiogenic cytokines was quantified using sandwich ELISA (DuoSet, R&D) for VEGF, ENA-78, MCP-1 and GROα and a multiplex assay (MSD) was used for the inflammatory cytokines: IL-13, TNF, IL-6 and IL-8. The secretion data were normalised according to the tumour sample's protein content.
# [3] = system: human SW480 colorectal cancer cells; assay: Proliferation / cell number of SW480 cells (crystal violet); type: cell-based; settings: 10 μM, by 96 hours
# Procedure: Cells were maintained in RPMI media supplemented with 10% foetal calf serum, penicillin (100 U/ml), streptomycin (100 μg/ml) and amphotericin B (4 μg/ml). A total of 5,000 cells were seeded per well in 96 well plates and left to incubate for 24 hours. The cells were washed in PBS and the media was replaced with solutions containing 10 μM of 5-fluorouracil (5FU), 4H, 11A or 11C. […] At each designated time point, the media was disposed and the cells washed with PBS. The cells were fixed with 1% glutaraldehyde for 20 minutes and then stained with crystal violet for 30 minutes. The plates were blotted and dried overnight. The cells were resuspended with 1% TritonX-100 and shaken for 15 minutes. The absorbance was read on a spectrophotometer at 550 nm.
# [4] = system: zebrafish intersegmental vessels; assay: Quantification of intersegmental vessel number in zebrafish; type: in vivo; settings: for inhibition of the number of intersegmental vessels that develop: 5 μM; for inhibition of developmental angiogenesis of intersegmental vessels (number of intersegmental vessels): 10 μM, from 6 hpf; for dose-dependent inhibition of development of intersegmental vessels: decreasing doses 10, 7.5, 5 and/or 1 μM
# Procedure: […] Larvae were manually dechorionated, euthanised, and fixed in 4% PFA at 4° C. overnight before analysis. The larvae were then washed with PBS and transferred to depression slides for observation under epi-fluorescence in an Olympus SZX16 fluorescent microscope. The number of intersegmental vessels was counted and the average number was graphed for each drug.
# Larvae were manually dechorionated, euthanised, and fixed in 4% PFA at 4° C. overnight before analysis. The larvae were then washed with PBS and transferred to depression slides for observation under epi-fluorescence in an Olympus SZX16 fluorescent microscope. The number of intersegmental vessels was counted and the average number was graphed for each drug.
Compound,"inhibition of the number of primary hyaloid vessels that develop ([1]; 10 μM, n>20)","inhibition of developmental angiogenesis of the hyaloid vasculature (number of primary hyaloid vessels) ([1]; typically 10 μM or 5 μM, from 24 hpf, vs DMSO control)",levels of ENA-78 secreted [2],levels of GRO-α secreted [2],levels of IL-6 secreted [2],levels of IL-8 secreted [2],levels of MCP-1 secreted [2],levels of TNFα secreted [2],levels of VEGF secreted [2],cell number compared to control [3],inhibition of the number of intersegmental vessels that develop [4],inhibition of developmental angiogenesis of intersegmental vessels (number of intersegmental vessels) [4],dose-dependent inhibition of development of intersegmental vessels [4],"levels of IL-1β secreted (printed IL-13, IL-1) [2]","cell number, % of the control [3]"
O=C(C=Cc1ccc2c(c1)OCO2)NCc1cccnc1 [Compound 11C],significant inhibition,inhibit developmental angiogenesis of the zebrafish hyaloid vasculature in a statistically significant manner,significantly reduced,significantly reduced,significantly reduced,significantly reduced,significantly reduced; also recorded: significant effects,significantly reduced,significant effects,did not significantly reduce cell number,significant inhibition,significant inhibition; also recorded: inhibit developmental angiogenesis of zebrafish intersegmental vessels in a statistically significant manner,dose-dependent effect,,
(5-bromo-N′-[2-(trifluromethyl)benzylidene]-2-furohydrazide) [Compound 11A],,,significantly reduced,significantly reduced,,significantly reduced,significantly reduced; also recorded: significant effects,significantly reduced,significantly reduced; also recorded: significant effects,did not significantly reduce cell number,significant inhibition,significant inhibition; also recorded: inhibit developmental angiogenesis of zebrafish intersegmental vessels in a statistically significant manner,dose-dependent effect,significantly reduced,
"Cc1ccc(N2C(=O)CC(NNC(=O)c3ccccc3)C2=O)c(C)c1 (stereo not shown) [Compound 4H, N′-[1-(2,4-dimethylphenyl)-2,5-dioxo-3-pyrrolidinyl]benzohydrazide]",,,significantly reduced,significantly reduced,significantly reduced,significantly reduced,significantly reduced; also recorded: significant effects,,significantly reduced; also recorded: significant effects,did not significantly reduce cell number,,significant inhibition; also recorded: inhibit developmental angiogenesis of zebrafish intersegmental vessels in a statistically significant manner,dose-dependent effect,,
"O=c1[nH]cc(F)c(=O)[nH]1 [5-fluorouracil, reference compound]",,,,,,,,,,,,,,,60%
